Source: ChEMBL document CHEMBL4359845, “Synthesis and Evaluation of Carbonic Anhydrase Inhibitors with Carbon Monoxide Releasing Properties for the Management of Rheumatoid Arthritis” (J Med Chem, 2019)
Active and inactive are the calls of the source.

Tests used:
[1] = target: T1, Carbonic anhydrase 1 (Homo sapiens, UniProt P00915); assay: Inhibition of recombinant human carbonic anhydrase 1 incubated for 6 hrs prior to testing measured for 10 to 100 secs by phenol red-based stopped-flow CO2 hydration assay
[2] = target: T2, Carbonic anhydrase 2 (Homo sapiens, UniProt P00918); assay: Inhibition of recombinant human carbonic anhydrase 2 incubated for 6 hrs prior to testing measured for 10 to 100 secs by phenol red-based stopped-flow CO2 hydration assay
[3] = target: T3, Carbonic anhydrase 9 (Homo sapiens, UniProt Q16790); assay: Inhibition of recombinant human carbonic anhydrase 9 incubated for 6 hrs prior to testing measured for 10 to 100 secs by phenol red-based stopped-flow CO2 hydration assay
[4] = target: Carbonic anhydrase 12 (Homo sapiens, UniProt O43570); assay: Inhibition of recombinant human carbonic anhydrase 12 incubated for 6 hrs prior to testing measured for 10 to 100 secs by phenol red-based stopped-flow CO2 hydration assay
[5] = target: T1, Carbonic anhydrase 1; assay: Inhibition of recombinant human carbonic anhydrase 1 incubated for 15 mins prior to testing measured for 10 to 100 secs by phenol red-based stopped-flow CO2 hydration assay
[6] = target: T2, Carbonic anhydrase 2; assay: Inhibition of recombinant human carbonic anhydrase 2 incubated for 15 mins prior to testing measured for 10 to 100 secs by phenol red-based stopped-flow CO2 hydration assay
[7] = target: Carbonic anhydrase 4 (Homo sapiens, UniProt P22748); assay: Inhibition of recombinant human carbonic anhydrase 4 incubated for 15 mins prior to testing measured for 10 to 100 secs by phenol red-based stopped-flow CO2 hydration assay
[8] = target: T3, Carbonic anhydrase 9; assay: Inhibition of recombinant human carbonic anhydrase 9 incubated for 15 mins prior to testing measured for 10 to 100 secs by phenol red-based stopped-flow CO2 hydration assay
[9] = system: Rattus norvegicus; assay: (§1) Antihyperalgesic activity in complete freund's adjuvant-induced Sprague-Dawley rat arthritis model assessed as increase in hind paw withdrawal reflex thresholds at 42.4 mg/kg, po administered 14 days post complete freund's adjuvant challenge and measured up to 45 mins by analgesiometry-based paw pressure test; type: functional, organism-based
[10] = system: Rattus norvegicus; assay: as §1, with “after 45” for “up”, “60” for “45”; type: functional, organism-based
[11] = system: Rattus norvegicus; assay: Effect on contralateral paw withdrawal reflex threshold in complete freund's adjuvant-induced Sprague-Dawley rat arthritis model at 42.4 mg/kg, po administered 14 days post complete freund's adjuvant challenge by analgesiometry-based paw pressure test; type: ADME, organism-based; conditions: in vivo, 336 h
[12] = system: Rattus norvegicus; assay: (§2) Antihyperalgesic activity in complete freund's adjuvant-induced Sprague-Dawley rat arthritis model assessed as decrease in weight burden on contralateral to ipsilateral paw at 42.4 mg/kg, po administered 14 days post complete freund's adjuvant challenge and measured up to 45 mins by incapacitance test; type: functional, organism-based
[13] = system: Rattus norvegicus; assay: as §1, with “100” for “42.4”, “15” for “45”; type: functional, organism-based
[14] = system: Rattus norvegicus; assay: as §1, with “100” for “42.4”, “after 15” for “up”, “60” for “45”; type: functional, organism-based
[15] = system: Rattus norvegicus; assay: Effect on contralateral paw withdrawal reflex threshold in complete freund's adjuvant-induced Sprague-Dawley rat arthritis model at 100 mg/kg, po administered 14 days post complete freund's adjuvant challenge by analgesiometry-based paw pressure test; type: ADME, organism-based; conditions: in vivo, 336 h
[16] = system: Rattus norvegicus; assay: as §2, with “100” for “42.4”, “15” for “45”; type: functional, organism-based

T1 sequence (P00915 whole entry): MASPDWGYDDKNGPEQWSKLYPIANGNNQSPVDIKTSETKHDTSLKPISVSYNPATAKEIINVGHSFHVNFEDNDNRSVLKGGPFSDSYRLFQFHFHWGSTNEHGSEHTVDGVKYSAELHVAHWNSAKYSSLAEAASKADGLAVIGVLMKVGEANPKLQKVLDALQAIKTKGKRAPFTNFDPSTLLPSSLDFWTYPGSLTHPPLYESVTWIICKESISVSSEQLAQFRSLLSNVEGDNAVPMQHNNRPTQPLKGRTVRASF
Chain of Carbonic anhydrase 12 (O43570 whole entry): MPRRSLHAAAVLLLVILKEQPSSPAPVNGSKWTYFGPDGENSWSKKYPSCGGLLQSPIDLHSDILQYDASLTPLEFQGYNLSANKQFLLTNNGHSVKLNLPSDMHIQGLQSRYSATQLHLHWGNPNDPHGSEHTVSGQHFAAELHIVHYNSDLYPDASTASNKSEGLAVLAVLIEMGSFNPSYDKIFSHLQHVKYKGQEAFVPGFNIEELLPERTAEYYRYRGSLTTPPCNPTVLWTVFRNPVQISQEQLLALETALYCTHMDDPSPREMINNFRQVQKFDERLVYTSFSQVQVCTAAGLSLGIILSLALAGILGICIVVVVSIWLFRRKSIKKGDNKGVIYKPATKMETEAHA
Chain of Carbonic anhydrase 4 (P22748 whole entry): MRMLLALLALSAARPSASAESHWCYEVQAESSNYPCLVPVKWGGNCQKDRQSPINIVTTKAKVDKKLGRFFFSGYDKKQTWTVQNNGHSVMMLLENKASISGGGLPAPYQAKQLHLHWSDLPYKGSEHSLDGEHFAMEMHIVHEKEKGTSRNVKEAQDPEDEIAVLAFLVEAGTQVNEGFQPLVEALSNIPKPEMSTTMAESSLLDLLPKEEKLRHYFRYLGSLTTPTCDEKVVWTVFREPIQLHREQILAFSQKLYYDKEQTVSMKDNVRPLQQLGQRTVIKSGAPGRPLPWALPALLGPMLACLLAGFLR

## C#CCOc1ccc2c(c1)C=CS(=O)(=O)O2
[1]
  Ki: > 10000 nM
[2]
  Ki: > 10000 nM
[3]
  Ki: 474 nM
[4]
  Ki: 44.5 nM

## C#CCNc1ccc(S(N)(=O)=O)cc1
[5]
  Ki: 852 nM
[6]
  Ki: 96.5 nM
[7]
  Ki: > 10000 nM
[8]
  Ki: 416 nM
[9]
  Activity: Active
[10]
  Activity: inactive
[11]
  Activity: Non-Toxic
[12]
  Activity: Active

## CC(C)Cc1ccc(C(C)C(=O)O)cc1 (stereo not given) [IBUPROFEN]
[13]
  Activity: Active
[14]
  Activity: inactive
[15]
  Activity: Non-Toxic
[16]
  Activity: Active

## C#CCN(CC#C)CCCCOc1ccc(S(N)(=O)=O)cc1
[5]
  Ki: 817 nM
[6]
  Ki: 0.44 nM
[8]
  Ki: 3.8 nM

## C#CCOc1ccc2oc(=O)ccc2c1
[1]
  Ki: > 10000 nM
[2]
  Ki: > 10000 nM

## C#CCOc1ccc2c(c1)OS(=O)(=O)C=C2
[1]
  Ki: > 10000 nM
[2]
  Ki: > 10000 nM
[3]
  Ki: 6190 nM
[4]
  Ki: 30.3 nM

## C#CCSc1ccc(S(N)(=O)=O)cc1
[5]
  Ki: 30.2 nM
[6]
  Ki: 29.5 nM
[8]
  Ki: 7.6 nM

## C#CCNc1ccc2c(C)cc(=O)oc2c1
[3]
  Ki: 171 nM
[4]
  Ki: 34.7 nM
